In US12696901B2, “Pesticidally active heterocyclic derivatives with sulfur containing substituents” (SYNGENTA CROP PROTECTION AG, priority 2020, dated 2026):

Legend:
Assay type in all cases: in vivo
[1] = test system: Plutella xylostella (Diamond Back Moth); assay: Activity against Plutella xylostella (diamond back moth), treated artificial diet; settings: 192 h, application rate 200 ppm, eggs, 8 days after infestation, read-out: effect in at least one of the two categories (mortality or growth inhibition)
Experimental: Example B5: Activity Against Plutella xylostella (Diamond Back Moth)
24-well microtiter plates with artificial diet were treated with aqueous test solutions prepared from 10,000 ppm DMSO stock solutions by pipetting. After drying, Plutella eggs were pipetted through a plastic stencil onto a gel blotting paper and the plate was closed with it. The samples were assessed for mortality and growth inhibition in comparison to untreated samples 8 days after infestation.

[2] = test system: Diabrotica balteata (Corn Root Worm); assay: Activity against Diabrotica balteata (corn root worm), corn seedlings on filter paper in cups; settings: 120 h, application rate 3 ppm, L2 larva, 5 days after treatment, read-out: effect in at least one of the two categories (mortality or growth inhibition)
Experimental: Example B12: Activity Against Diabrotica Balteata (Corn Root Worm)
Three corn seedlings were placed on wetted filter paper in plastic cups, and 3 ml of diluted test solutions were pipetted onto them. The cups were infested with 10 L2 larva and checked for mortality and growth regulation 5 days after treatment.

[3] = test system: Spodoptera littoralis (Egyptian Cotton Leaf Worm); assay: Activity against Spodoptera littoralis (Egyptian cotton leaf worm), sprayed cotton leaf discs; settings: foliar, 72 h, application rate 200 ppm, L1 larvae, 3 days after infestation
Experimental: Example B7: Activity Against Spodoptera littoralis (Egyptian Cotton Leaf Worm)
Cotton leaf discs were placed onto agar in 24-well microtiter plates and sprayed with aqueous test solutions prepared from 10,000 ppm DMSO stock solutions. After drying the leaf discs were infested with five L1 larvae. The samples were assessed for mortality, anti-feeding effect, and growth inhibition in comparison to untreated samples 3 days after infestation. Control of Spodoptera littoralis by a test sample is given when at least one of the categories mortality, anti-feedant effect, and growth inhibition is higher than the untreated sample.

[4] = test system: Myzus persicae (Green Peach Aphid); assay: Activity against Myzus persicae (green peach aphid), feeding/contact activity; settings: 144 h, application rate 200 ppm, mixed ages, 6 days after infestation
Experimental: Example B6: Activity Against Myzus persicae (Green Peach Aphid) Feeding/Contact Activity
Sunflower leaf discs were placed onto agar in a 24-well microtiter plate and sprayed with aqueous test solutions prepared from 10,000 ppm DMSO stock solutions. After drying, the leaf discs were infested with an aphid population of mixed ages. The samples were assessed for mortality 6 days after infestation.

[5] = test system: Carpocapsa (Cydia) Pomonella (Codling Moth); assay: Activity against Carpocapsa (Cydia) pomonella (codling moth), sprayed diet cubes; settings: 336 h, application rate 12.5 ppm, L1 larvae, 14 days after infestation, read-out: effect in at least one of the two categories (mortality or growth inhibition)
Experimental: Example B11: Activity Against Carpocapsa (Cydia) Pomonella (Codling Moth)
Diet cubes coated with paraffin were sprayed with diluted test solutions in an application chamber. After drying off the treated cubes (10 replicates) were infested with 1 L1 larvae. Samples were incubated at 26-27° C. and checked 14 days after infestation for mortality and growth inhibition. The following compounds gave an effect of at least 80% in at least one of the two categories (mortality or growth inhibition) at an application rate of 12.5 ppm: P1, P2, P3, P4, P5, P6, P10, P11, P12, P14, P15, P16, P17, P19, P20, P21, P22, P24, P27, P29, P30, P33, P34, P35.

[6] = test system: Diabrotica balteata (Corn Root Worm); assay: Activity against Diabrotica balteata (corn root worm), sprayed maize sprouts on agar; settings: 96 h, application rate 200 ppm, L2 larvae, 4 days after infestation, read-out: effect in at least one of the two categories (mortality or growth inhibition)
Experimental: Example B2: Activity Against Diabrotica balteata (Corn Root Worm)
Maize sprouts placed onto an agar layer in 24-well microtiter plates were treated with aqueous test solutions prepared from 10,000 ppm DMSO stock solutions by spraying. After drying, the plates were infested with L2 larvae (6 to 10 per well). The samples were assessed for mortality and growth inhibition in comparison to untreated samples 4 days after infestation.

[7] = test system: Euschistus heros (Neotropical Brown Stink Bug); assay: Activity against Euschistus heros (neotropical brown stink bug), sprayed soybean leaves; settings: 120 h, application rate 200 ppm, N2 nymphs, 5 days after infestation, read-out: effect in at least one of the two categories (mortality or growth inhibition)
Experimental: Example B3: Activity Against Euschistus heros (Neotropical Brown Stink Bug)
Soybean leaves on agar in 24-well microtiter plates were sprayed with aqueous test solutions prepared from 10,000 ppm DMSO stock solutions. After drying the leaves were infested with N2 nymphs. The samples were assessed for mortality and growth inhibition in comparison to untreated samples 5 days after infestation.

[8] = test system: Chilo suppressalis (Striped Rice Stemborer); assay: Activity against Chilo suppressalis (striped rice stemborer), treated artificial diet; settings: 144 h, application rate 200 ppm, L2 larvae, 6 days after infestation
Experimental: Example B10: Activity Against Chilo suppressalis (Striped Rice Stemborer)
24-well microtiter plates with artificial diet were treated with aqueous test solutions prepared from 10,000 ppm DMSO stock solutions by pipetting. After drying, the plates were infested with L2 larvae (6-8 per well). The samples were assessed for mortality, anti-feeding effect, and growth inhibition in comparison to untreated samples 6 days after infestation. Control of Chilo suppressalis by a test sample is given when at least one of the categories mortality, anti-feedant effect, and growth inhibition is higher than the untreated sample.

CCS(=O)(=O)c1c(N2Cc3ncc(C(F)(F)F)cc3C2=O)nc2cc(C(F)(F)F)ccn12 [Compound P2, 6-[3-ethylsulfonyl-7-(trifluoromethyl)imidazo[1,2-a]pyridin-2-yl]-3-(trifluoromethyl)-7H-pyrrolo[3,4-b]pyridin-5-one]
≥ 80%: percent effect (mortality or growth inhibition) at 200 ppm [1] | percent effect (mortality or growth inhibition) at 3 ppm [2] | percent control (mortality, anti-feedant effect or growth inhibition) at 200 ppm [3] | mortality at 200 ppm [4] | percent effect (mortality or growth inhibition) at 12.5 ppm [5] | percent effect (mortality or growth inhibition) at 200 ppm [6]

CCS(=O)(=O)c1c(N2Cc3ncc(C(F)(F)F)cc3C2=O)nc2ccc(OC)cn12 [Compound P8, 6-(3-ethylsulfonyl-6-methoxy-imidazo [1,2-a]pyridin-2-yl)-3-(trifluoromethyl)-7H-pyrrolo[3,4-b] pyridin-5-one]
≥ 80%: percent effect (mortality or growth inhibition) at 200 ppm [1] | percent effect (mortality or growth inhibition) at 200 ppm [7] | percent control (mortality, anti-feedant effect or growth inhibition) at 200 ppm [3] | percent effect (mortality or growth inhibition) at 200 ppm [6]

CCS(=O)(=O)c1c(N2Cc3ncc(C(F)(F)F)cc3C2=O)nc2ccc(OC(C)C)cn12 [Compound P9, 6-(3-ethylsulfonyl-6-isopropoxy-imidazo [1,2-a]pyridin-2-yl)-3-(trifluoromethyl)-7H-pyrrolo[3,4-b] pyridin-5-one]
≥ 80%: percent control (mortality, anti-feedant effect or growth inhibition) at 200 ppm [3]

CCS(=O)(=O)c1c(N2Cc3ncc(C(F)(F)F)cc3C2=O)nc2ccc(OCC(F)(F)F)cn12 [Compound P11, 6-[3-ethylsulfonyl-6-(2,2,2-trifluoroethoxy)imidazo[1,2-a]pyridin-2-yl]-3-(trifluoromethyl)-7H-pyrrolo[3,4-b]pyridin-5-one]
≥ 80%: percent effect (mortality or growth inhibition) at 200 ppm [1] | percent effect (mortality or growth inhibition) at 3 ppm [2] | percent control (mortality, anti-feedant effect or growth inhibition) at 200 ppm [3] | percent control (mortality, anti-feedant effect or growth inhibition) at 200 ppm [8] | mortality at 200 ppm [4] | percent effect (mortality or growth inhibition) at 12.5 ppm [5] | percent effect (mortality or growth inhibition) at 200 ppm [6]

CCS(=O)(=O)c1c(N2Cc3ncc(C(F)(F)F)cc3C2=O)nc2cc(OCC(F)(F)F)ccn12 [Compound P12, 6-[3-ethylsulfonyl-7-(2,2,2-trifluoroethoxy)imidazo[1,2-a]pyridin-2-yl]-3-(trifluoromethyl)-7H-pyrrolo[3,4-b]pyridin-5-one]
≥ 80%: percent effect (mortality or growth inhibition) at 200 ppm [1] | percent effect (mortality or growth inhibition) at 200 ppm [7] | percent effect (mortality or growth inhibition) at 3 ppm [2] | percent control (mortality, anti-feedant effect or growth inhibition) at 200 ppm [3] | percent control (mortality, anti-feedant effect or growth inhibition) at 200 ppm [8] | mortality at 200 ppm [4] | percent effect (mortality or growth inhibition) at 12.5 ppm [5] | percent effect (mortality or growth inhibition) at 200 ppm [6]

CCS(=O)(=O)c1c(N2Cc3ncc(C(F)(F)F)cc3C2=O)nc2ccc(C(C)(F)F)cn12 [Compound P18, 6-[6-(1,1-difluoroethyl)-3-ethylsulfonyl-imidazo [1,2-a]pyridin-2-yl]-3-(trifluoromethyl)-7H-pyrrolo[3,4-b]pyridin-5-one]
≥ 80%: percent effect (mortality or growth inhibition) at 3 ppm [2]

CCS(=O)(=O)c1c(N2Cc3ncc(C(F)(F)F)cc3C2=O)nc2cc(Br)ccn12 [Compound P22, 6-(7-bromo-3-ethylsulfonyl-imidazo[1,2-a]pyridin-2-yl)-3-(trifluoromethyl)-7H-pyrrolo[3,4-b]pyridin-5-one]
≥ 80%: percent effect (mortality or growth inhibition) at 200 ppm [1] | percent effect (mortality or growth inhibition) at 3 ppm [2] | percent control (mortality, anti-feedant effect or growth inhibition) at 200 ppm [3] | percent control (mortality, anti-feedant effect or growth inhibition) at 200 ppm [8] | mortality at 200 ppm [4] | percent effect (mortality or growth inhibition) at 12.5 ppm [5] | percent effect (mortality or growth inhibition) at 200 ppm [6]

CCS(=O)(=O)c1c(N2Cc3ccc(OC(F)(F)F)cc3C2=O)nc2cc(OCC(F)(F)F)ccn12 [Compound P28, 2-[3-ethylsulfonyl-7-(2,2,2-trifluoroethoxy)imidazo[1,2-a]pyridin-2-yl]-6-(trifluoromethoxy) isoindolin-1-one]
≥ 80%: percent effect (mortality or growth inhibition) at 3 ppm [2]

CCS(=O)(=O)c1c(N2Cc3ccc(OC(F)(F)F)cc3C2=O)nc2ccc(Br)cn12 [Compound P29, 2-(6-bromo-3-ethylsulfonyl-imidazo [1,2-a]pyridin-2-yl)-6-(trifluoromethoxy) isoindolin-1-one]
≥ 80%: percent effect (mortality or growth inhibition) at 200 ppm [1] | percent effect (mortality or growth inhibition) at 3 ppm [2] | percent control (mortality, anti-feedant effect or growth inhibition) at 200 ppm [3] | percent control (mortality, anti-feedant effect or growth inhibition) at 200 ppm [8] | mortality at 200 ppm [4] | percent effect (mortality or growth inhibition) at 12.5 ppm [5] | percent effect (mortality or growth inhibition) at 200 ppm [6]

CCS(=O)(=O)c1c(N2Cc3ccc(S(=O)(=O)C(F)(F)F)cc3C2=O)nc2ccc(Br)cn12 [Compound P30, 2-(6-bromo-3-ethylsulfonyl-imidazo[1,2-a]pyridin-2-yl)-6-(trifluoromethyl-sulfonyl) isoindolin-1-one]
≥ 80%: percent effect (mortality or growth inhibition) at 200 ppm [1] | percent effect (mortality or growth inhibition) at 3 ppm [2] | percent control (mortality, anti-feedant effect or growth inhibition) at 200 ppm [3] | percent control (mortality, anti-feedant effect or growth inhibition) at 200 ppm [8] | percent effect (mortality or growth inhibition) at 12.5 ppm [5] | percent effect (mortality or growth inhibition) at 200 ppm [6]

CCS(=O)(=O)c1c(N2Cc3ncc(C(F)(F)F)cc3C2=O)nc2ccc(OCC3(C#N)CC3)cn12 [Compound P31, 1-[[3-ethylsulfonyl-2-[5-oxo-3-(trifluoromethyl)-7H-pyrrolo[3,4-b]pyridin-6-yl]imidazo [1,2-a]pyridin-6-yl]oxymethyl] cyclopropane-carbonitrile]
≥ 80%: percent effect (mortality or growth inhibition) at 200 ppm [1] | percent control (mortality, anti-feedant effect or growth inhibition) at 200 ppm [3] | percent control (mortality, anti-feedant effect or growth inhibition) at 200 ppm [8] | percent effect (mortality or growth inhibition) at 200 ppm [6]

CCS(=O)(=O)c1c(N2Cc3ccc(S(=O)(=O)C(F)(F)F)cc3C2=O)nc2ccc(C(F)(F)F)cn12 [Compound P32, 2-[3-ethylsulfonyl-6-(trifluoromethyl)imidazo[1,2-a]pyridin-2-yl]-6-(trifluoromethyl-sulfonyl) isoindolin-1-one]
≥ 80%: percent effect (mortality or growth inhibition) at 200 ppm [1] | percent effect (mortality or growth inhibition) at 3 ppm [2] | percent control (mortality, anti-feedant effect or growth inhibition) at 200 ppm [3] | percent control (mortality, anti-feedant effect or growth inhibition) at 200 ppm [8] | percent effect (mortality or growth inhibition) at 200 ppm [6]

CCS(=O)(=O)c1c(N2Cc3ccc(OC(F)F)cc3C2=O)nc2ccc(C(F)(F)F)cn12 [Compound P34, 6-(difluoromethoxy)-2-[3-ethylsulfonyl-6-(trifluoromethyl)imidazo[1,2-a]pyridin-2-yl]isoindolin-1-one]
≥ 80%: percent effect (mortality or growth inhibition) at 200 ppm [1] | percent effect (mortality or growth inhibition) at 3 ppm [2] | percent control (mortality, anti-feedant effect or growth inhibition) at 200 ppm [3] | percent control (mortality, anti-feedant effect or growth inhibition) at 200 ppm [8] | mortality at 200 ppm [4] | percent effect (mortality or growth inhibition) at 12.5 ppm [5] | percent effect (mortality or growth inhibition) at 200 ppm [6]
